Laboratory results: patent US20080132533A1, “Solid Dispersion Comprising Tacrolimus and Entericcoated Macromolecule” (GL PharmTech Corp., priority 2005, published 2008)
Converted amounts (≈) assume the structure as drawn.

Assays:
[1] = Dynamic solubility test in water; assay type: physicochemical; conditions: thermodynamic from solid, 100 mL water, 37° C., 200 rpm, read-out: Solubility of tacrolimus (mean ± SD)
Procedure: The excessive specimens were loaded and appropriate aliquots were collected after 0.5, 1, 2, 4, and 8 hours, and the samples were analyzed by high performance liquid chromatography.

[2] = background art; mass unit printed as an image character; cited from earlier work

solubility at 1 h ([1]; 1 hr): 0.28 ± 0.05 µg/mL (≈ 0.348 µM)
solubility at 2 h ([1]; 2 hr): 0.68 ± 0.02 µg/mL (≈ 0.846 µM)
solubility at 4 h ([1]; 4 hr): 0.74 ± 0.01 µg/mL (≈ 0.92 µM)
solubility at 8 h ([1]; 8 hr): 0.96 ± 0.05 µg/mL (≈ 1.19 µM)
Structure (SMILES): C=CC[C@@H]1/C=C(\C)C[C@H](C)C[C@H](OC)[C@H]2O[C@@](O)(C(=O)C(=O)N3CCCC[C@H]3C(=O)O[C@H](/C(C)=C/[C@@H]3CC[C@@H](O)[C@H](OC)C3)[C@H](C)[C@@H](O)CC1=O)[C@H](C)C[C@@H]2OC [Control, tacrolimus]
Solubility of tacrolimus in water [2]: 1˜2 /mL
